The test system of one data set is S. aureus OC2878. As to the kind of experiment: MIC, microdilution broth method (NCCLS). It is filed as cell-based. To be noted: Staphylococcus aureus; S. aureus OC2878 (MRSA); 35° C., 16-20 hours; read-out: MIC (μg/mL) in Test Strains S. aureus OC2878. As to the method:
(§1) Minimal inhibitory concentration (MIC) has been an indicator of in vitro antibacterial activity widely used in the art. The in vitro antimicrobial activity of the compounds was determined by the microdilution broth method following the test method from the National Committee for Laboratory Standards (NCCLS). This method is described in the NCCLS Document M7-A4, Vol. 17, No. 2, “Methods for Dilution Antimicrobial Susceptibility Test for Bacteria that Grow Aerobically—Fourth Edition”, which is incorporated herein by reference.
(§2) In this method two-fold serial dilutions of drug in cation adjusted Mueller-Hinton broth are added to wells in microdilution trays. The test organisms are prepared by adjusting the turbidity of actively growing broth cultures so that the final concentration of test organism after it is added to the wells is approximately 5×10^4 CFU/well.
(§3) Following inoculation of the microdilution trays, the trays are incubated at 35° C. for 16-20 hours and then read. […] The amount of growth in the wells containing the test compound is compared with the amount of growth in the growth-control wells (no test compound) used in each tray. As set forth in Table 1, some compounds of the present invention were tested against a variety of pathogenic bacteria resulting in a range of activities, from 1 to >128 μg/mL depending on the organism tested. S. aureus OC2878 is a MRSA and E. faecium OC3312 is a vancomycin-resistant enterococcus.
On the technique in general: Dilution methods test growth across graded concentrations, often in twofold steps.

A further data set relates to E. faecium OC3312. The experiment in a line: MIC, microdilution broth method (NCCLS). Particulars: E. faecium OC3312 (vancomycin-resistant enterococcus); 35° C., 16-20 hours; read-out: MIC (μg/mL) in Test Strains E. faecium OC3312. It is filed as cell-based. On the procedure: as §1, §2, §3
The next data set has as its system S. aureus OC4172. The experiment in a line: MIC, microdilution broth method (NCCLS). It is filed as cell-based. Particulars: Staphylococcus aureus, 35° C., 16-20 hours, read-out: MIC (μg/mL) in Test Strains S. aureus OC4172. As to the method: as §1, §2, §3

Each structure is given as a SMILES string. ≈ marks a conversion by molar mass, not a printed value.

Here are results for eleven compounds from patent US6951863B2, “Pyridoarylphenly oxazolidinone antibacterials, and related compositions and methods” (Ortho-McNeil Pharmaceutical, Inc., priority 2001, dated 2005).

As usually defined, the melting point is the temperature, or range, at which the solid turns liquid.

As for `O=C1O[C@@H](CO)CN1c1ccc(N2CCc3ccccc3C2)c(F)c1` [Compound 1, 2-oxazolidinone, 3-[4-(3,4-dihydro-2(1H)-isoquinolinyl)-3-fluorophenyl]-5-(hydroxymethyl)-, (5R)-], the MIC in the data set on S. aureus OC2878 was 32 µg/mL (≈ 93.5 µM); in the data set on E. faecium OC3312, over 128 µg/mL; in the data set with S. aureus OC4172, 128 µg/mL (≈ 374 µM).
For the compound `CC(=O)NC[C@H]1CN(c2ccc(N3CCc4ccccc4C3)c(F)c2)C(=O)O1` [Compound 2, acetamide, N-[[(5S)-3-[4-(3,4-dihydro-2(1H)-isoquinolinyl)-3-fluorophenyl]-2-oxo-5-oxazolidinyl]methyl]-], the melting point lay within 131 to 134 °C. Moreover, in the data set on S. aureus OC2878, the MIC was 4 µg/mL (≈ 10.4 µM). In addition, the MIC in the data set with E. faecium OC3312 came out at 8 µg/mL (≈ 20.9 µM). For the same compound, the MIC in the data set on S. aureus OC4172 was 8 µg/mL (≈ 20.9 µM).
Consider `CC(=O)NC[C@H]1CN(c2ccc(N3CCc4ccncc4C3)c(F)c2)C(=O)O1` [Compound 3, acetamide, N-[[(5S)-3-[4-(3,4-dihydro-2,7-naphthyridin-2(1H)-yl)-3-fluorophenyl]-2-oxo-5-oxazolidinyl]methyl]-], for which the melting point is 141 to 144 °C (dec.). The MIC in the data set with S. aureus OC2878 was 4 µg/mL (≈ 10.4 µM). Further, the MIC in the data set on E. faecium OC3312 came out at 8 µg/mL (≈ 20.8 µM). Besides, the MIC in the data set on S. aureus OC4172 was 8 µg/mL (≈ 20.8 µM).
Consider `CC(=O)NC[C@H]1CN(c2ccc(N3CCc4cnccc4C3=O)c(F)c2)C(=O)O1` [Compound 4, acetamide, N-[[(5S)-3-[4-(3,4-dihydro-1-oxo-2,6-naphthyridin-2(1H)-yl)-3-fluorophenyl]-2-oxo-5-oxazolidinyl]methyl]-], for which the MIC came out at 16 µg/mL (≈ 40.2 µM) with S. aureus OC2878, 32 µg/mL (≈ 80.3 µM) with E. faecium OC3312 and 32 µg/mL (≈ 80.3 µM) with S. aureus OC4172.
In the case of `CC(=O)NC[C@H]1CN(c2ccc(N3CCc4ncncc4C3)c(F)c2)C(=O)O1` [Compound 5, acetamide, N-[[(5S)-3-[4-(7,8-dihydropyrido[4,3-d]pyrimidin-6(5H)-yl)-3-fluorophenyl]-2-oxo-5-oxazolidinyl]methyl]-], the MIC in the data set with S. aureus OC2878 was 2 µg/mL (≈ 5.19 µM); with E. faecium OC3312, 8 µg/mL (≈ 20.8 µM); in the data set with S. aureus OC4172 it was 4 µg/mL (≈ 10.4 µM).
The like results for `CC(=O)NC[C@H]1CN(c2ccc(N3CCc4nc(C)ncc4C3)c(F)c2)C(=O)O1` [Compound 6, acetamide, N-[[(5S)-3-[4-(7,8-dihydro-2-methylpyrido[4,3-d]pyrimidin-6(5H)-yl)-3-fluorophenyl]-2-oxo-5-oxazolidinyl]methyl]-] were, in that order, 2 µg/mL (≈ 5.01 µM), 8 µg/mL (≈ 20 µM) and 4 µg/mL (≈ 10 µM).
As for `CC(=O)NC[C@H]1CN(c2ccc(N3CCc4nc(-c5csc(C)n5)ncc4C3)c(F)c2)C(=O)O1` [Compound 7, acetamide, N-[[(5S)-3-[4-[7,8-dihydro-2-(2-methyl-4-thiazolyl)pyrido[4,3-d]pyrimidin-6(5H)-yl]-3-fluorophenyl]-2-oxo-5-oxazolidinyl]methyl]-], the MIC with S. aureus OC2878, in the data set with E. faecium OC3312 and in the data set on S. aureus OC4172 was 8 µg/mL (≈ 16.6 µM) throughout.
For `CC(=O)NC[C@H]1CN(c2ccc(N3CCc4nc(-c5ccncc5)ncc4C3)c(F)c2)C(=O)O1` [Compound 8, acetamide, N-[[(5S)-3-[4-[7,8-dihydro-2-(4-pyridinyl)pyrido[4,3-d]pyrimidin-6(5H)-yl]-3-fluorophenyl]-2-oxo-5-oxazolidinyl]methyl]-], the MIC in the data set with S. aureus OC2878 came to 2 µg/mL (≈ 4.32 µM); with E. faecium OC3312, 4 µg/mL (≈ 8.65 µM); in the data set with S. aureus OC4172, 2 µg/mL (≈ 4.32 µM).
As to `CC(=O)NC[C@H]1CN(c2ccc(N3CCc4nc(-c5cnccn5)ncc4C3)c(F)c2)C(=O)O1` [Compound 9, acetamide, N-[[(5S)-3-[4-(7,8-dihydro-2-pyrazinylpyrido[4,3-d]pyrimidin-6(5H)-yl)-3-fluorophenyl]-2-oxo-5-oxazolidinyl]methyl]-], the MIC is 4 µg/mL (≈ 8.63 µM) in the data set on S. aureus OC2878, 8 µg/mL (≈ 17.3 µM) in the data set on E. faecium OC3312 and 4 µg/mL (≈ 8.63 µM) with S. aureus OC4172.
`CC(=O)NC[C@H]1CN(c2ccc(N3CCc4[nH]ncc4C3)c(F)c2)C(=O)O1` [Compound 10, acetamide, N-[[(5S)-3-[4-(1,4,6,7-tetrahydro-5H-pyrazolo[4,3-c]pyridin-5-yl)-3-fluorophenyl]-2-oxo-5-oxazolidinyl]methyl]-]: the MIC with S. aureus OC2878 was 8 µg/mL (≈ 21.4 µM); with E. faecium OC3312, 16 µg/mL (≈ 42.9 µM); in the data set on S. aureus OC4172, 8 µg/mL (≈ 21.4 µM).
Take `CC(=O)NC[C@H]1CN(c2ccc(N3CCc4c(cnn4C)C3)c(F)c2)C(=O)O1` [Compound 11, acetamide, N-[[(5S)-3-[4-(1,4,6,7-tetrahydro-1-methyl-5H-pyrazolo[4,3-c]pyridin-5-yl)-3-fluorophenyl]-2-oxo-5-oxazolidinyl]methyl]-]: the MIC was determined as 8 µg/mL (≈ 20.6 µM) in the data set on S. aureus OC2878, 16 µg/mL (≈ 41.3 µM) in the data set with E. faecium OC3312 and 16 µg/mL (≈ 41.3 µM) with S. aureus OC4172.
